Results on one molecule are retold here after PMC11643690, “Chelating Properties of N6O-Donors Toward Cu(II) Ions: Speciation in Aqueous Environments and Catalytic Activity of the Dinuclear Complexes” (Molecules, 2024).

A short description of data set [1]: Potentiometric titration of the free ligand (protonation constants). The class given is physicochemical. As to the method:
As far as the ligand behavior in aqueous solutions is concerned, the speciation curves were obtained from the titration of an L-CH3 solution (0.1 mM in DMSO 5% (v/v)/H2O (HCl/KCl); initial pH = 2.7) by stepwise addition of NaOH 0.1 M. The distribution curves and the acid association constants were then calculated (Figure 1 and Table 1).
At low pH, L-CH3 has seven protic groups that can be deprotonated upon pH increase: besides the phenolic OH, two tertiary amines and four pyridines. From the titration, six logKa could be successfully obtained. The highest one, logKa = 9.75, is related to the phenolic group. The next constants are ascribed to the nitrogens of the tertiary amines and of the Pyr groups, although they are difficult to unambiguously correlate with a specific functional group. […] The potentiometric titration was carried out till pH 9.5 to avoid the precipitation of the ligand in the basic environment.
Potentiometric measurements were carried out using the Metrohm pH-meter system (Herisau, Switzerland) with a Metrohm semi-micro combination electrode at 25 °C, calibrated in a hydrogen ion concentration using HCl. The ligands were dissolved in DMSO (5% v/v/H2O (HCl/KCl)) in order to obtain a concentration of 1 mM. The titrant (KOH 0.1M) was added with a micrometric syringe at 298 K in the pH range of 2.5–11.5 in an argon atmosphere. The stability constants and stoichiometry of the complexes were calculated using the titration curves and the SUPERQUAD and HYPERQUAD [47, 48].

In a further data set the target is T1, β-amyloid 1–40 peptide (Homo sapiens, UniProt P05067).
T1 construct: β-Amyloid (1–40) was purchased from GenScript; purchased GenScript (Leiden, the Netherlands)
Briefly: Thioflavin T (ThT) fluorescence aggregation assay. The class given is biochemical. Particulars: [ThT] = 10 μM; [β-amyloid 1–40] = 10 μM; 10 μM test substance; PBS pH 7.4, 37 °C. As for the experimental part: To evaluate the anti-aggregation ability of the complexes, the β-amyloid 1–40 peptide was selected due to its higher solubility and slower aggregation rate compared to the full-length Aβ 1–42. Aggregation experiments were conducted using the Thioflavin T (ThT) fluorescence assay, which is a standard method to monitor amyloid aggregation. ThT binds specifically to amyloid fibrils, causing an increase in fluorescence intensity. If a complex inhibits peptide aggregation, the observed fluorescence increase will be lower compared to the reference, indicating inhibition.
In this experiment, the amyloid peptide was first dissolved in 1,1,1,3,3,3-hexafluoro-2-propanol (HFIP) to facilitate its unfolding. A 0.2 mM solution of the peptide was then prepared in 10 mM PBS (containing 100 mM NaCl, pH 7.4). To this solution, equimolar amounts of ThT (prepared in the same buffer) and the complex (dissolved in methanol) were added.
Aggregation test: ThT method
Amyloid peptides Aβ1-40 were used for this analysis. […]
• For the measurement, fluorescence spectra were recorded with a plate reader, using a Tecan […]
The fluorescence of sample solutions was monitored at 37° C over a period of about 30 hours, acquiring values every 20 minutes. The fluorescence variation of ThT was compared in the presence/ absence of amyloid/ ligands/ complexes.

[2] abbreviates: overall protonation constant, DMSO 5% (v/v)/H2O (HCl/KCl), 25 °C.

T1 sequence (P05067 672-711 limits assumed): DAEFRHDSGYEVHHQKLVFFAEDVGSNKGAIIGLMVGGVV

`Cc1cc(CN(Cc2ccccn2)Cc2ccccn2)c(O)c(CN(Cc2ccccn2)Cc2ccccn2)c1` [HL-CH3, 2,6-bis[(bis(2-pyridylmethyl)amino)methyl]-4-methylphenol]: in data set [1] (setting [2]), the “logβi, L^− + 2H^+ ⇌ [H2L]^+” value amounted to 16.57 ± 0.01; the “logβi, L^− + 3H^+ ⇌ [H3L]^2+” value was found to be 21.56 ± 0.01; the “logβi, L^− + 4H^+ ⇌ [H4L]^3+” value amounted to 25.27 ± 0.01; the “logβi, L^− + 5H^+ ⇌ [H5L]^4+” value was 27.83 ± 0.02. Moreover, in data set [1] (setting [2]), the “logβi, L^− + 6H^+ ⇌ [H6L]^5+” value is listed as 29.60 ± 0.11 and the “logβi, L^− + H^+ ⇌ HL” value is 9.75 ± 0.01. Besides, in data set [1] (stepwise constant), the “logKa, HL + H^+ ⇌ [H2L]^+” value came out at 6.82; the “logKa, [H2L]^+ + H^+ ⇌ [H3L]^2+” value was 4.99; the “logKa, [H3L]^2+ + H^+ ⇌ [H4L]^3+” value came out at 3.71; the “logKa, [H4L]^3+ + H^+ ⇌ [H5L]^4+” value is 2.56. The “logKa, [H5L]^4+ + H^+ ⇌ [H6L]^5+” value in data set [1] (stepwise constant) is given as 1.77. The “logKa, L + H^+ ⇌ HL” value in data set [1] (stepwise constant, phenolic group) was 9.75. The “inhibition of Aβ 1–40 aggregation (ThT fluorescence)” value against β-amyloid 1–40 peptide was “moderate inhibition”.
